# Assay results taken from US20240389585A1, “METHOD FOR PROMOTING PLANT GROWTH” (priority 2021, published 2024).
# Assays:
# Complex soil microbiome = experiment: Crystal violet biofilm biomass, MeJA chemical analogs; assay type: cell-based; details: 20 hrs
# Method: Complex soil microbiome was treated with various MeJA chemical analogs over 20 hrs and stained with CV. The full chemical name of the chemical analogs are as follows: DHJ: Dihydro jasmonic acid; MDHJ: Methyl dihydro jasmonate; MJ: Methyl jasmonate; MO: Methyl octanoate.
# This method was used to get a proxy for biofilm biomass. Briefly, planktonic cells were discarded. 50 μL of 0.1% CV solution was added to the well very gently. The biofilm was stained for 10 minutes. The dye was removed gently. 100 μL of PBS was added to the well to wash off the excess CV. PBS was removed, and the wells were left to dry overnight. The next day, 200 ul of 1% SDS was added to each well and was resuspended vigorously with a pipette. After 20 minutes, 20 ul from the top suspension was removed and added to a new 96-well plate. The well was diluted with 180 ul of water and absorbance was checked at 595 nm on a spectrophotometer.
# To identify the potential functional group of MeJA for its biofilm-inducing property, several jasmonic acid analogues were screened for their biofilm-inducing capability in the soil microbiome. The analogues were used to study biofilm induction in both complex soil microbiomes (FIG. 8).
# soil microbiota [1] = experiment: Live confocal imaging of soil microbiota biofilm formation (SYTO9 nucleic acid stain, 3D biovolume); assay type: cell-based
# Method: (§1) 5 g of JIFFY soil substrate was resuspended in 20 ml of PBS. This suspension was vortexed for 4 minutes and sonicated for 1 minute. It was then filtered through a strainer. The slurry that didn't pass through the strainer was again resuspended in 20 ml of PBS medium and subsequent steps were repeated twice. The filtrate was then centrifuged at 150G for 2 minutes to settle large soil particles and the supernatant was decanted into another tube. This supernatant was then centrifuged at 5500G for 5 minutes to obtain a bacterial pellet. This pellet was resuspended in 20 ml of soil extract medium. This suspension was referred to as “soil microbiota inoculum”. The final concentration in all inocula was around 1×10^8 bacteria per ml as quantified by Baclight bacterial counting kit (flow cytometry) or manual counting with a hemocytometer.
# (§2) For the confocal imaging experiments, soil inoculum was enriched in soil extract media overnight at 37° C.
# (§3) Soil microbiota inoculum was prepared as described in the section above. MeJA was added to the microbiota to achieve the desired concentration (0, 1, 5, 25 nM for nucleic acid imaging experiment, and 0 and 5 nM for matrix imaging experiment). […] 50 µL of SYTO™9 (Thermo cat. no. S34854) solution (final concentration of 5 μM) was also added to all the wells. For matrix imaging, FilmTracer™ SYPRO™ Ruby Biofilm Matrix Stain (Thermo, cat. no. F10318) was added instead (ready to use, 1×concentration). For live imaging, Zeiss LSM 900 with Airyscan (Definite Focus 2) was used and images were acquired every 30 minutes for 24 hours with 65×oil objective at the NUS Centre for Bioimaging Science (CBIS). For both the dyes (separate experiments), a 488 nm laser was used.
# (§4) Image analysis was performed using BiofilmQ software ([…]). Images were aligned along the Z-axis and along time. 2-class Otsu thresholding was used to detect the signal against the background. Sensitivity was set based on thresholding feedback. The rest of the settings were kept at default. Biofilm-related global properties were calculated and exported. We mainly focused on the 3D biovolume of our samples. Linear mixed-effects were used to model the biovolume where time, treatment, and their interaction were the fixed effects, and every sample was considered a random effect (Table 1 and Table 2). Following packages from R were used: nlme (Pinheiro, J. et al., R package version 3.1-153 (2021)), ggplot2 (Wickham, H., Wiley Interdiscip. Rev. Comput. Stat. 3, 180-185 (2011)).
# soil microbiota [2] = experiment: Crystal violet biofilm biomass in push-pull dynamic system; assay type: cell-based; details: 5, 25 and 50 μmol MeJA spiked in soil chamber
# Method: as §1
# This system consists of an aerator/pump (to push air), 5 μm charcoal filter (to adsorb gaseous impurities), 0.22 μm filter (to trap microbial contamination), gas wash bottle (to moisturize the air), a source chamber (to host the source of volatiles), recipient chamber (to receive volatiles) and vacuum pump (to pull the air out) (FIG. 1D). […]
# This method was used to get a proxy for biofilm biomass. […] The well was diluted with 180 ul of water and absorbance was checked at 595 nm on a spectrophotometer.
# [3] = system: microbial isolates from MeJA-induced complex biofilms; experiment: Biofilm assay of monoculture strains isolated from MeJA-induced biofilms; assay type: cell-based; details: 5 nM MeJA, crystal violet after 24 hours
# Method: Complex microbiota biofilm exposed to volatile MeJA was scraped off and resuspended in PBS. Through serial dilution, this inoculum was plated on soil extract agar, minimal media agar, and LB agar. Colonies with unique morphology were picked and streaked onto a fresh LB plate to acquire single colonies. The isolated strains were identified using Sanger sequencing of the PCR product with primers 27F and […]. Their biofilm response to volatile MeJA was tested using “push-pull” setup (as described above for complex biofilms). Their response to soluble MeJA was tested by directly adding MeJA to the monoculture inoculum (final concentration of 5 nM). For both assays, biofilms were stained with crystal violet and quantified after 24 hours as explained in the biofilm staining protocol. The initial OD of the inoculum was 0.2.
# soil microbiome = experiment: Biofilm induction by liquid MeJA concentration range; assay type: cell-based; details: pure liquid MeJA
# Method: Biofilm induction of the soil microbiome was tested with several concentrations of pure MeJA at the nanomolar level. It was confirmed that a concentration range from […] of MeJA was effective to induce biofilms without being detrimental to plant growth.
# [4] = system: soil microbiota biofilm community; experiment: 16S rRNA gene amplicon quantitative microbiome profiling of VOC-exposed biofilm communities; details: 16 and 24 hours
# Method: Using the push-pull airflow system, soil microbiota inoculum was exposed to four VOC treatments 1) soil VOCs; 2) WT Arabidopis rVOCs; 3) jmt Arabidopsis rVOCs; 4) jmt Arabidopsis rVOCs+MeJA. Biofilm and planktonic parts of the samples were collected from 28 wells after 16 and 24 hours and stored at −80° C. The collective sample from 28 wells was treated as a single experimental replicate. The whole experiment was repeated eight times.
# Biofilm was scraped at specific timepoints and resuspended in PBS solution. DNA-RNA shield was added in 1:1 proportion and samples were stored at −80 C. Zymobiomics DNA miniprep kit was used to isolate DNA from the samples based on their protocol. 16S V4-V5 region was amplified using 515F-Y and 927R primers (Walters et al., mSystems 1 (2016)). 20 µL of reaction contained 2 μL of 10×DreamTaq buffer, 2 μL of 2 mM dNTP mix, 0.5 μL of each primer (10 µM), 0.5 μL of DreamTaq polymerase (5U/μL), 10 ng of template DNA, and molecular grade water to make up the volume. PCR conditions were as follows: initial denaturation at 95° C. for 3 minutes, 35 cycles of denaturation at 95° C. for 45 s, annealing at 50° C. for 45 s, extension at 68° C. for 90 s and final extension at 68° C. for 5 minutes. PCR products were purified with a Genejet PCR purification kit. Amplicon concentration was measured using Qubit DNA BR Kit and Qubit fluorometer. 16S amplicons were submitted for next-gen sequencing on Illumina MiSeq V3 Run (300 base pairs paired-end) at Singapore Centre for Life Science Engineering (SCELSE). Rarefaction analysis was performed to calculate appropriate depth for sequencing (FIG. 17B).
# To enumerate the 16S rRNA gene copy numbers, the primer pair 515F and 806R (Walters, W. et al., MSystems 1, (2016)) were used in qPCR to amplify the 16S gene using Applied Biosystem real-time PCR system. The PCR assay mixture consists of 10 ul of PowerUp™ SYBR™ Green Master Mix, 1 ul of each primer from 10 µM stock, 1 ul of DNA of extracted DNA from the microbial population, and 7 ul of sterile nuclease-free water. The PCR amplification program encompassed an initial denaturation step at 95° C. for 3 min followed by 40 three-step cycles at 95° C. for 30 s, at 52° C. for 30 s and 72° C. for 30 s. Plasmid with the fragments of 16S rRNA gene part amplified with same primer pair was taken as standard for creating standard curve with known copy number for absolute quantification. Pearson correlation was calculated for the qPCR-derived copy number and the DNA yield from all the samples (FIG. 17D).
# Raw and demultiplexed sequencing data was analysed as follows (also described in a flowchart in FIG. 17A): Primer and adapter sequences were removed using cutadapt (Martin, M., EMBnet.journal 17, 10-12 (2011)). […]
# [5] = system: soil microbiota biofilms (extracellular matrix proteins); experiment: Live confocal imaging of biofilm matrix formation (SYPRO Ruby, 3D biovolume); assay type: cell-based
# Method: as §1, §2, §3, §4
# [6] = 5 nM MeJA, time-treatment interaction
compound,measurement,setting,value
"CC/C=C\CC1=C(C)CCC1=O [Cis-jasmone, cis-jasmone]",potential for biofilm induction among jasmonic acid analogues,Complex soil microbiome,highest potential for biofilm induction
"CCCCCC1C(=O)CCC1CC(=O)O (stereo not shown) [DHJ, Dihydro jasmonic acid]",potential for biofilm induction among jasmonic acid analogues,Complex soil microbiome,highest potential for biofilm induction
"CC/C=C\CC1C(=O)CCC1CC(=O)OC (stereo not shown) [MeJA, Methyl jasmonate]","Linear mixed-effects model Value, Treatment1 nM (Biovolume)","soil microbiota [1]; 1 nM MeJA, SYTO9, imaging over 24 hours",−988.35
same,"Linear mixed-effects model Value, Hours: Treatment1 nM (Biovolume)","soil microbiota [1]; 1 nM MeJA, time-treatment interaction",106.209
same,time from which biovolumes differed,soil microbiota [1]; 5 nM MeJA,≥ 15 h
same,interaction of time and treatment in mixed-effects model,soil microbiota [1]; 5 nM MeJA vs non-treated biofilms,statistically significant
same,biofilm growth trajectory (biovolume),"soil microbiota [1]; 5 nM MeJA, 0 to 24 hours, vs control",increasingly higher biofilm growth trajectory compared to the control
same,"Linear mixed-effects model Value, Treatment5 nM (Biovolume)","soil microbiota [1]; 5 nM MeJA, SYTO9, imaging over 24 hours",−453.513
same,"Linear mixed-effects model Value, Hours: Treatment5 nM (Biovolume)",soil microbiota [1]; [6],102.9409
same,"Linear mixed-effects model Value, Treatment25 nM (Biovolume)","soil microbiota [1]; 25 nM MeJA, SYTO9, imaging over 24 hours",−1245.62
same,"Linear mixed-effects model Value, Hours: Treatment25 nM (Biovolume)","soil microbiota [1]; 25 nM MeJA, time-treatment interaction",90.7811
same,"potency in biofilm promotion, volatile form",soil microbiota [2],higher at low concentrations (5 μmol) and gradually declined in a dose-dependent manner
same,"strains MeJA-responsive in biofilm formation, of nine tested",[3],six
same,concentration effective to induce biofilms without being detrimental to plant growth,soil microbiome,≥ 500 nM
same,share of biofilm community with significant shift in abundance,"[4]; WT rVOCs vs soil VOCs, MeJA: jmt+MeJA vs jmt rVOCs",~10%
same,number of promoted ASVs,[4]; vs respective control,21 ASVs
same,number of repressed ASVs,[4]; vs respective control,82 ASVs
same,number of responding ASVs,[4]; vs respective control,103 ASVs
same,time from which MeJA influence appeared in the matrix,[5]; 5 nM MeJA,≥ 7 h
same,effect on biofilm matrix,[5]; 5 nM MeJA vs non-treated biofilm,promoted biofilm matrix compared to non-treated biofilm
same,"Linear mixed-effects model Value, Treatment5 (matrix Biovolume)","[5]; 5 nM MeJA, SYPRO Ruby",294.3537
same,"Linear mixed-effects model Value, Hours: Treatment5 (matrix Biovolume)",[5]; [6],11.25
